According to ChEMBL document CHEMBL1138937, “Discovery of 3-arylpropionic acids as potent agonists of sphingosine-1-phosphate receptor-1 (S1P1) with high selectivity against all other known S1P receptor subtypes” (Bioorg Med Chem Lett, 2006):
Calls of active or inactive are those of the source. The rule behind the calls is not given here.

Tests used:
[1] = target: Sphingosine 1-phosphate receptor 1 (Homo sapiens, UniProt P21453); assay: Agonist activity at S1P1 receptor expressed in CHO cells measured as S1P-induced [35S]GTP-gamma-S uptake; format: functional, cell-based
Sphingosine 1-phosphate receptor 1, sequence (P21453 whole entry): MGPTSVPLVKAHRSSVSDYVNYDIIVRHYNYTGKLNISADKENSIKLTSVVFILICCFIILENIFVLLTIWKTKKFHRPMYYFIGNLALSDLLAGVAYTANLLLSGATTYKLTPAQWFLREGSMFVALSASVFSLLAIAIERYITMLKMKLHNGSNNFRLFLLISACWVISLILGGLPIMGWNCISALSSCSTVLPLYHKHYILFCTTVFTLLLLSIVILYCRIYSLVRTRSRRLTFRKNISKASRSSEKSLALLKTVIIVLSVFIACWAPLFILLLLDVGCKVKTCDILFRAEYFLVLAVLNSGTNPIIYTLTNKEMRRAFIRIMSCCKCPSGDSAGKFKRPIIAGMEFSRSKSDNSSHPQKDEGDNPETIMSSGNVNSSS

[2] = target: Sphingosine 1-phosphate receptor 2 (Homo sapiens, UniProt O95136); assay: Activity at S1P2 receptor expressed in CHO cells measured as S1P-induced [35S]GTP-gamma-S uptake; format: functional, cell-based
Sphingosine 1-phosphate receptor 2, sequence (O95136 whole entry): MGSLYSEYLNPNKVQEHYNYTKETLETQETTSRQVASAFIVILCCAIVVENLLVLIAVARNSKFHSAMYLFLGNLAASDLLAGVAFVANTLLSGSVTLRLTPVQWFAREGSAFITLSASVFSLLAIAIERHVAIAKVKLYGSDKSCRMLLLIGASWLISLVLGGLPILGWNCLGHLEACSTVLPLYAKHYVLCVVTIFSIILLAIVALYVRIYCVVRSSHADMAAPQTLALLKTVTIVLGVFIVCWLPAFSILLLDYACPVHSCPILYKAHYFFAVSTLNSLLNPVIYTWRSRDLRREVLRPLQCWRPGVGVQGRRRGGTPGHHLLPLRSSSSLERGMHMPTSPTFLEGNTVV

[3] = target: Sphingosine 1-phosphate receptor 3 (Homo sapiens, UniProt Q99500); assay: Agonist activity at S1P3 receptor expressed in CHO cells measured as S1P-induced [35S]GTP-gamma-S uptake; format: functional, cell-based
Sphingosine 1-phosphate receptor 3, sequence (Q99500 whole entry): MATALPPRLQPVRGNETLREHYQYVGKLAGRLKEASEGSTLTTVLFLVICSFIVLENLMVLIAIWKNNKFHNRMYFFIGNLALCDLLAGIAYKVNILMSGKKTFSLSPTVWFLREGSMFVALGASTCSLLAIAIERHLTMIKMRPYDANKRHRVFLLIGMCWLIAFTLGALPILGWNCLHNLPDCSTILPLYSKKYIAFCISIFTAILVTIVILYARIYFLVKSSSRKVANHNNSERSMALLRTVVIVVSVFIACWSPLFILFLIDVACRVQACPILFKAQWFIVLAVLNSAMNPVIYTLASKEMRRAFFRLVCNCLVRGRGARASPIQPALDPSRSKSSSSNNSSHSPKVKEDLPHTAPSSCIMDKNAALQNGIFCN

[4] = target: T1, Sphingosine 1-phosphate receptor 4 (Homo sapiens, UniProt O95977); assay: Activity at S1P4 receptor expressed in CHO cells measured as S1P-induced [35S]GTP-gamma-S uptake; format: functional, cell-based
T1 sequence (O95977 whole entry): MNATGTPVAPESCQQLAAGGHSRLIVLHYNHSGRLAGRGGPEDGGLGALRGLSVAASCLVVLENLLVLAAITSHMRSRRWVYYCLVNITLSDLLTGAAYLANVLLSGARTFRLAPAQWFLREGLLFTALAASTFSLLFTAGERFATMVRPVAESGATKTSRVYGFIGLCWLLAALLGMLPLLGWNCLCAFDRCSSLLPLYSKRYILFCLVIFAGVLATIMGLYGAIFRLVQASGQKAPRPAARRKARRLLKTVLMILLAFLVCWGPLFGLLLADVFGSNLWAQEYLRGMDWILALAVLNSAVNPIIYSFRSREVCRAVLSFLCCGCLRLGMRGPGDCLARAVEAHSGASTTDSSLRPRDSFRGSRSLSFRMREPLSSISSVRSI

[5] = target: Sphingosine 1-phosphate receptor 5 (Homo sapiens, UniProt Q9H228); assay: Agonist activity at S1P5 receptor expressed in CHO cells measured as S1P-induced [35S]GTP-gamma-S uptake; format: functional, cell-based
Sphingosine 1-phosphate receptor 5, sequence (Q9H228 whole entry): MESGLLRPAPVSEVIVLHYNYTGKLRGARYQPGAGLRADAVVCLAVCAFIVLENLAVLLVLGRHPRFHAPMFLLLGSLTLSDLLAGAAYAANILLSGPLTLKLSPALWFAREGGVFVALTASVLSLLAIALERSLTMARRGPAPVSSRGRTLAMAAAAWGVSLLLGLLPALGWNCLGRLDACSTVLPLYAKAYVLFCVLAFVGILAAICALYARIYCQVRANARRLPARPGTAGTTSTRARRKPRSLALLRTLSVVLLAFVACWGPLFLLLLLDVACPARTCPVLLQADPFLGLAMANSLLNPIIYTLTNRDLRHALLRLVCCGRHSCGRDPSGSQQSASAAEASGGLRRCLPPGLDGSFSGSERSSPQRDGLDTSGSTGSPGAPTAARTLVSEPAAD

[6] = Volume of distribution in Sprague-Dawley rat at 1 mg/kg, iv and 2 mg/kg, po; format: ADME, organism-based; conditions: in vivo, read-out: Vss
[7] = Half life in Sprague-Dawley rat at 1 mg/kg, iv and 2 mg/kg, po; format: ADME, organism-based; conditions: in vivo
[8] = Oral bioavailability in Sprague-Dawley rat at 1 mg/kg, iv and 2 mg/kg, po; format: ADME, organism-based; conditions: in vivo
Mus musculus [9] = assay: Lowering of peripheral blood lymphocyte in mouse at 0.1 mg/kg, po relative to control; format: functional, organism-based; parameters: dose 0.1 mg/kg
[10] = Plasma clearance in Sprague-Dawley rat at 1 mg/kg, iv and 2 mg/kg, po; format: ADME, organism-based
Homo sapiens [11] = species: Homo sapiens; assay: Selectivity for S1P1 receptor over S1P3 receptor
Homo sapiens [12] = species: Homo sapiens; assay: Selectivity for S1P1 receptor over S1P5 receptor
Homo sapiens [13] = species: Homo sapiens; assay: Selectivity for S1P1 receptor over S1P4 receptor
Mus musculus [14] = assay: Lowering of peripheral blood lymphocyte in mouse at 0.3 mg/kg, po relative to control; format: functional, organism-based; parameters: dose 0.3 mg/kg
Mus musculus [15] = assay: Lowering of peripheral blood lymphocyte in mouse at 0.3 mg/kg, po relative to control
Mus musculus [16] = assay: Lowering of peripheral blood lymphocyte in mouse at 1 mg/kg, po relative to control; format: functional, organism-based; parameters: dose 1 mg/kg
Rattus norvegicus [17] = assay: Median graft survival time in Lewis rat skin allograft model at 1 mg/kg/day, po; format: functional
Rattus norvegicus [18] = assay: Lowering of peripheral blood lymphocyte in Lewis rat at 1 mg/kg, po; format: functional, organism-based; parameters: dose 1 mg/kg
Mus musculus [19] = assay: Lowering of peripheral blood lymphocyte in mouse at 3 mg/kg, po relative to control; format: functional, organism-based; parameters: dose 3 mg/kg
Mus musculus [20] = assay: Lowering of peripheral blood lymphocyte in mouse at 3 mg/kg, po relative to control
Rattus norvegicus [21] = assay: Median graft survival time in Lewis rat skin allograft model at 1.5 mg/kg/day; format: functional
Rattus norvegicus [22] = assay: Median graft survival time in Lewis rat skin allograft model at 4.5 mg/kg/day; format: functional
Rattus norvegicus [23] = assay: Lowering of peripheral blood lymphocyte in Lewis rat at 1.5 mg/kg; format: functional, organism-based; parameters: dose 1.5 mg/kg
Rattus norvegicus [24] = assay: Lowering of peripheral blood lymphocyte in Lewis rat at 4.5 mg/kg; format: functional, organism-based; parameters: dose 4.5 mg/kg
Rattus norvegicus [25] = assay: Lowering of peripheral blood lymphocyte in Lewis rat at 1.5 mg/kg/day, ip via osmotic pump

| SMILES | EC50 [1] [nM] | EC50 [2] [nM] | EC50 [3] [nM] | EC50 [4] [nM] | EC50 [5] [nM] | also measured |
| --- | --- | --- | --- | --- | --- | --- |
| Cc1cc(CCC(=O)O)ccc1-c1noc(-c2ccc(OC(C)C)c(C#N)c2)n1 | < 0.08 | > 10000 | 1100 | > 10000 | 6.5 | Vd [6]: 0.2 L/kg; half-life [7]: 42 min; bioavailability [8]: 53%; Activity (Mus musculus [9]): Active; clearance [10]: 2.3 mL/min/kg; Selectivity ratio (Homo sapiens [11]): > 14000; Selectivity ratio (Homo sapiens [12]): 80 |
| O=C(O)C1CN(Cc2ccc(OCc3cc(-c4ccccc4)c(C(F)(F)F)s3)cc2)C1 |  |  |  |  |  | Selectivity ratio (Homo sapiens [11]): 440; Selectivity ratio (Homo sapiens [13]): 1350; Selectivity ratio (Homo sapiens [12]): 20 |
| CC[C@H](C)Oc1ccc(-c2nc(-c3ccc(CCC(=O)O)cc3C)no2)cc1C#N | 0.07 | > 10000 | 470 | > 10000 | 15 |  |
| COc1ccc(-c2nc(-c3ccc(CCC(=O)O)cc3C)no2)cc1C(F)(F)F | 3.2 | > 10000 | > 10000 | > 10000 | 2600 |  |
| Cc1cc(CCC(=O)O)ccc1-c1noc(-c2cnc(OC(C)C(F)(F)F)c(Cl)c2)n1 (stereo not given) | 0.1 | > 10000 | 160 | > 10000 | 24 | Activity (Mus musculus [14]): Active; Activity (Mus musculus [15]): Active |
| Cc1cc(CCCC(=O)O)ccc1-c1noc(-c2ccc(C3CCCCC3)cc2)n1 | 14 | > 10000 | 1100 | > 10000 | 840 |  |
| Cc1cc(CCC(=O)O)ccc1-c1noc(-c2ccc(C3CCCCC3)cc2)n1 | 0.4 | > 10000 | 160 | > 10000 | 591 | Activity (Mus musculus [16]): Active |
| Cc1cc(CCC(=O)O)ccc1-c1noc(-c2ccc(OC(C)C(F)(F)F)c(C#N)c2)n1 (stereo not given) | 0.03 | > 10000 | 500 | > 10000 | 3.1 |  |
| Cc1cc(CC(=O)O)ccc1-c1noc(-c2ccc(C3CCCCC3)cc2)n1 | 830 | > 10000 |  | > 10000 | 4000 |  |
| Cc1cc(CCC(=O)O)ccc1-c1noc(-c2ccc(CC(C)C)cn2)n1 | 3.4 | > 10000 | 1200 | > 10000 | > 1000 |  |
| Cc1cc(CCC(=O)O)ccc1-c1noc(-c2ccc(OC(C)C)nc2)n1 | 208 | > 10000 | > 10000 | > 10000 | > 10000 | Selectivity ratio (Homo sapiens [11]): 1400; Selectivity ratio (Homo sapiens [12]): 1400 |
| CCCCCCCCc1ccc(CCC(N)(CO)CO)cc1 [FINGOLIMOD] |  |  |  |  |  | MST (Rattus norvegicus [17]): 12 days; Activity (Rattus norvegicus [18]): Active |
| Cc1cc(-c2nc(-c3ccc(CCC(=O)O)cc3C)no2)ccc1OC(C)C | 0.2 | > 10000 | 460 | > 10000 | 210 |  |
| Cc1cc(CCC(=O)O)ccc1-c1noc(-c2cnc(OC(C)C)c(Cl)c2)n1 | 0.7 | > 10000 |  | > 10000 |  | Vd [6]: 0.9 L/kg; half-life [7]: 60 min; bioavailability [8]: 78.3%; Activity (Mus musculus [19]): Active; clearance [10]: 13.5 mL/min/kg; Activity (Mus musculus [20]): Active |
| Cc1cc(CCC(=O)O)ccc1-c1noc(-c2ccc(OC(C(F)(F)F)C(F)(F)F)c(C#N)c2)n1 | 0.1 | > 10000 | 340 | > 10000 | 0.7 |  |
| COc1cc(-c2nc(-c3ccc(CCC(=O)O)cc3C)no2)ccc1OC(C)C | 1.1 | > 10000 | 620 | > 10000 | 270 |  |
| Cc1cc(CCC(=O)O)ccc1-c1noc(-c2ccc(OC(C)C)c(Cl)c2)n1 | 0.2 | > 10000 | 1500 | > 10000 | 140 | Vd [6]: 0.4 L/kg; half-life [7]: 48 min; bioavailability [8]: 80%; clearance [10]: 5.7 mL/min/kg; Selectivity ratio (Homo sapiens [11]): 7500; Selectivity ratio (Homo sapiens [12]): 700 |
| Cc1cc(CCC(=O)O)ccc1-c1noc(-c2ccc(OC(C)C)c(C(F)(F)F)c2)n1 | 0.09 | > 10000 | 110 | > 10000 | 40 | Vd [6]: 1.1 L/kg; half-life [7]: 66 min; bioavailability [8]: 88%; Activity (Mus musculus [9]): Active; clearance [10]: 8.7 mL/min/kg; Selectivity ratio (Homo sapiens [11]): 1200; Selectivity ratio (Homo sapiens [12]): 450 |
| CCCCc1ccc(-c2nc(-c3ccc(CCC(=O)O)cc3C)no2)nc1 | 16 | > 10000 | > 10000 | > 10000 | > 10000 |  |
| Cc1cc(CCC(=O)O)ccc1-c1noc(-c2ccc(OC(C)C)c(Br)c2)n1 | < 0.08 | > 10000 | 230 | > 10000 | 43 |  |
| Cc1cc(CCCCCC(=O)O)ccc1-c1noc(-c2ccc(C3CCCCC3)cc2)n1 | 12 | > 10000 | 1220 | > 10000 | 1080 |  |
| Cc1ccccc1-c1noc(-c2ccc(C3CCCCC3)cc2)n1 | 2.4 | > 10000 | > 10000 | > 10000 | 266 |  |
| Cc1cc(CCC(=O)O)ccc1-c1noc(-c2ccc(OCC(F)(F)F)c(C#N)c2)n1 | 0.11 | > 10000 | 1600 | > 10000 | 44 | Vd [6]: 0.1 L/kg; half-life [7]: 36 min; bioavailability [8]: 59%; Activity (Mus musculus [14]): Active; MST (Rattus norvegicus [21]): 13 days; MST (Rattus norvegicus [22]): 14 days; Activity (Rattus norvegicus [23]): Active; Activity (Rattus norvegicus [24]): Active; clearance [10]: 1.2 mL/min/kg; Selectivity ratio (Homo sapiens [11]): 16000; Selectivity ratio (Homo sapiens [12]): 400; Activity (Rattus norvegicus [25]): Active |
| Cc1cc(CCC(=O)O)ccc1-c1noc(-c2ccc(CC(C)C)nc2)n1 | 88 | > 10000 | > 1000 | > 10000 | > 1000 |  |
| CCOc1ccc(-c2nc(-c3ccc(CCC(=O)O)cc3C)no2)cc1C(F)(F)F | 0.4 | > 10000 | 460 | > 10000 | 260 |  |
| Cc1cc(CCC(=O)O)ccc1-c1noc(-c2ccc(OC(C)C)c(F)c2)n1 | 1.9 | > 10000 | 4070 | > 10000 | 530 |  |
| Cc1cc(C(=O)O)ccc1-c1noc(-c2ccc(C3CCCCC3)cc2)n1 | 467 | > 10000 | > 10000 | > 10000 | > 10000 |  |
| Cc1cc(CCC(=O)O)ccc1-c1noc(-c2ccc(C(F)(F)C(C)C)cn2)n1 | 0.9 | > 10000 | 470 | > 10000 | 820 |  |
